The record followed here is article PMC6022709 (BMC Research Notes, 2018).

The structures appear in SMILES notation. ≈ marks a conversion by molar mass, not a printed value. Numbered stars: 1 amine (or outer) side, 2 acyl side, 3 side chain; on linkers, the order of the positions; unused ones are H or OH. Square brackets hold non-standard residues; d marks the D form. Peptide text beside a SMILES is read from it. ξ: configuration not given here. X1 = CC[C@H](C)[C@@H](C(=O)[*:2])N(O)[*:1]; ξPiz(1,6-dehydro) = O=C(O)C1CCC=NN1; ξN(OH)Ile(3ξ) = CCC(C)C(NO)C(=O)O; dNMeF = CN[C@H](Cc1ccccc1)C(=O)O; NMeF = CN[CH](Cc1ccccc1)C(=O)O; X2 = O=C(C1CCCNN1[*:1])[*:2]; Pip = O=C(O)[C@@H]1CCCCN1; dPip = O=C(O)[C@H]1CCCCN1

For experiment [1], the system named is M. tuberculosis H37Rv-LP (ATCC 25618) expressing a red fluorescent protein. As to conditions: for MIC90: H37Rv.
The test system is the same in experiment [2]. Description: microbe, parasite or virus in culture. As to conditions: Mycobacterium tuberculosis.
The next experiment deals with M. tuberculosis WT. It is filed as cell-based, Mycobacterium tuberculosis.

Regarding `CC[C@H](C)[C@H]1C(=O)N2NCCC[C@@H]2C(=O)N2NCCC[C@H]2C(=O)N(C)[C@H](Cc2ccccc2)C(=O)N2CCC[C@H]2C(=O)N[C@H](Cc2ccccc2)C(=O)N1CC(C)=O` [Compound 5], the MIC90 in experiment [1] is recorded as 8.2 ± 1.2 µM (≈ 6.55 µg/mL).
Regarding `CC[C@H](C)[C@H]1C(=O)N2CCCC[C@@H]2C(=O)N2CCCC[C@H]2C(=O)N(C)[C@H](Cc2ccccc2)C(=O)N2CCC[C@H]2C(=O)N[C@H](Cc2ccccc2)C(=O)N1O` [Compound 15] (cyclo([dNMeF]P[dF][X1][dPip][Pip])), in experiment [1], the “anti-tubercular activity (in words)” value is reported as “loss of anti-tubercular activity” and the MIC90 was more than 20 µM.
Regarding `CO[C@H]1/C=C/O[C@@]2(C)Oc3c(C)c(O)c4c(O)c(c(/C=N/N5CCN(C)CC5)c(O)c4c3C2=O)NC(=O)/C(C)=C\C=C\[C@H](C)[C@H](O)[C@@H](C)[C@@H](O)[C@@H](C)[C@H](OC(C)=O)[C@@H]1C` [Rifampicin], in experiment [2], the MIC came to 7.7 nM (≈ 0.00634 µg/mL).
The molecule `CCC(C)C1C(=O)N2CCCC2C(=O)NC(CC(C)C)C(=O)N(O)C(CC(C)C)C(=O)N2NCCCC2C(=O)N2NCCCC2C(=O)N1C` (stereo not drawn) [Compound 4] displayed an MIC90 in experiment [1] of 7.3 ± 1.9 µM (≈ 5.04 µg/mL).
Regarding `CC(C)CC1C(=O)N2NCCCC2C(=O)N2NCCCC2C(=O)N(C)C(Cc2ccccc2)C(=O)N2CCCC2C(=O)NC(Cc2ccccc2)C(=O)N1O` (stereo not drawn) [Compound 1, cyclo[N-(Me)Phe-Pro-Phe-N-(OH)Leu-Piz-Piz]], the MIC99 in the experiment on M. tuberculosis WT is listed as 1.6 µM (≈ 1.21 µg/mL). The MIC90 in experiment [1] turned out to be 2.3 ± 0.5 µM (≈ 1.75 µg/mL).
For `CC(C)CC1C(=O)N2NCCCC2C(=O)N2NCCCC2C(=O)N(C)C(Cc2ccccc2)C(=O)N2CCCC2C(=O)NC(C(C)C)C(=O)N1O` (stereo not drawn) [Compound 3], the MIC99 against M. tuberculosis WT was 0.8 µM (≈ 0.569 µg/mL). This molecule also yielded an MIC90 in experiment [1] of 8.9 ± 1.8 µM (≈ 6.33 µg/mL).
Turning to `CCC(C)C1C(=O)N2NCCCC2C(=O)N2NCCCC2C(=O)N(C)C(Cc2ccccc2)C(=O)N2CCCC2C(=O)NC(Cc2ccccc2)C(=O)N1O` (stereo not drawn) [Compound 2] (cyclo([ξN(OH)Ile(3ξ)][X2][X2][NMeF]PF); configuration not given here), the MIC90 in experiment [1] was 2.8 ± 0.8 µM (≈ 2.12 µg/mL).
On the same count and under the same terms, the same measure for `CCCC1C(=O)N2CCCC2C(=O)NC(CC(C)C)C(=O)N(O)C(CC(C)C)C(=O)N2NCCCC2C(=O)N2NCCCC2C(=O)N1C` (stereo not drawn) [Compound 16]: more than 20 µM.
Same read-out and setting: with `CCC(C)C1NC(=O)C(Cc2ccccc2)NC(=O)C2CCCN2C(=O)C(Cc2ccccc2)N(C)C(=O)C2CCC=NN2C(=O)C2CCC=NN2C1=O` (stereo not drawn) [Compound 7] (cyclo([ξPiz(1,6-dehydro)][ξPiz(1,6-dehydro)][NMeF]PFI); configuration not given here) the figure was more than 20 µM.
